According to patent US9234893B2, “Marker comprising anti-CK8/18 complex autoantibody and its use for diagnosing cancer” (Korea Research Institute of Bioscience and Biotechnology, priority 2011, dated 2016):

System: TAB-K94 antibody
Assay: ELISA with selected phage as coating antigen and TAB-K94 antibody as primary antibody
Format: binding, mouse
Conditions: 100 ng/100 μl TAB-K94 antibody, absorbance at 450 nm
Experimental: In order to examine the reactivity of the selected TAB-K94 antibody-specific phages against TAB-K94 antibody, ELISA was performed using the phage as a coating antigen and TAB-K94 antibody as a primary antibody. The detailed method is as follows:
[…] was diluted in 100 μl of a coating solution (0.1 M sodium bicarbonate buffer, pH 8.6) and added to each well of 96-well Maxisorp ELISA plate. For antigen coating, the phage-added plate was stored at 4° C. for 16 hours or longer. After phage coating, 300 μl of skim milk solution (5% (w/v) skim milk/TBST) was added, and reacted at room temperature for 1 hour to block the remaining sites after antigen coating. After blocking, the plate was washed with TBST (TBS containing 0.1% Tween-20) twice, and 100 ng/100 μl of TAB-K94 antibody was added thereto, and reacted at room temperature for 90 minutes. […] The secondary antibody was also reacted at room temperature for 90 minutes, and the plate was washed with TBST six times. Color development was performed using a TMB solution (Pierce) as a substrate for HRP. Absorbance was measured at 450 nm to quantify the antigen-antibody reaction.

ISPDAHS (Ile-Ser-Pro-Asp-Ala-His-Ser) [K94p1]
reactivity against TAB-K94 antibody in ELISA: high reactivity
